In publication PMC4456386, “Ligand Recognition of the Major Birch Pollen Allergen Bet v 1 is Isoform Dependent” (PLoS ONE, 2015):
Where two headings read alike, the source gives them in different places.

Legend:
[1] = biological target: T1, Bet v 1a (Betula pendula, UniProt P15494); assay: 1H-15N HSQC NMR titration (chemical shift perturbation) of 15N-Bet v 1a; format: binding, Betula verrucosa; conditions: Bet v 1a
T1 construct: made in house
Experimental: (§1) All NMR experiments were performed at 298 K in 50 mM sodium phosphate buffer, 50 mM NaCl, pH 7.0, 10% deuterium oxide (^2H2O) with ^15N-uniformly labelled Bet v 1 isoforms using Bruker Avance 700 MHz and Avance 800 MHz spectrometers with cryogenically cooled triple-resonance probes equipped with pulsed field-gradient capabilities. NMR data were processed using NMRPipe and visualized with NMRViewJ [89]. Three-dimensional ^15N-edited NOESY (nuclear Overhauser enhancement spectroscopy, mixing times 120 ms) experiments to assign chemical shifts were obtained with 500 μM ^15N-labeled samples of Bet v 1 isoform d or m and yielded 91% of assigned residues for Bet v 1d and 89% for Bet v 1m. The sequence-specific assignments of the amide resonances of Bet v 1a are reported elsewhere.
(§2) Interaction of Q3OS with the Bet v 1 isoforms was measured by incubating 700 μM Q3OS with 50 μM of each ^15N-labeled Bet v 1 isoform in 50 mM sodium phosphate, 50 mM NaCl buffer, pH 7.0.
(§3) For titration experiments all other flavonoids were dissolved in deuterated DMSO, while glucose and galactose were dissolved in 50 mM sodium phosphate buffer, 50 mM NaCl, pH 7.0, 10% deuterium oxide and titrated stepwise to a final excess of up to 17-fold to protein samples (ca. 100 μM). […] CSPs for ligand binding were calculated based on Eq (2): […] (2) ΔδHN and ΔδN, chemical shift differences of amide proton and nitrogen resonances, respectively, in ppm.
(§4) K d values for flavonoid binding were determined with NMRViewJ [89]. All analysable amino acid residues that were unaffected by DMSO addition and showing CSPs > 0.08 ppm were fitted to a quadratic binding curve with default settings, and an average K d app was calculated (Table 1 and S1–S3 Tables). The CSPs of all residues showing CSPs > 0.04 ppm were mapped either on models of Bet v 1d and Bet v 1m or on the Bet v 1a structure (pdb code 1BV1, [29]).

[2] = biological target: T2, Bet v 1d (Betula pendula, UniProt P43177); assay: 1H-15N HSQC NMR titration (chemical shift perturbation) of 15N-Bet v 1d; format: binding, Betula verrucosa
T2 construct: made in house
Experimental: as §1, §2, §3, §4

[3] = biological target: T3, Bet v 1m (Betula pendula, UniProt P43186); assay: 1H-15N HSQC NMR titration (chemical shift perturbation) of 15N-Bet v 1m; format: binding, Betula verrucosa; conditions: NMR, average of all analysable residues with CSPs > 0.08 ppm, ± standard deviation
T3 construct: made in house
Experimental: as §1, §2, §3, §4

[4] = biological target: T3, Bet v 1m; assay: as above; format: binding, Betula verrucosa; conditions: 1H-15N HSQC titration, up to 15-fold excess
[5] = tested on: humanized rat basophil leukemia (RBL) cells; assay: β-Hexosaminidase release (mediator release) assay; format: cell-based
Experimental: (§5) Fifteen sera of birch pollen-allergic subjects were collected, tested, and pooled according to the guideline of the European Medicines Agency (EMEA/CHMP/BWP/304831/2007). The serum pool is routinely used for batch-release testing of birch pollen-derived allergenic products at the Paul-Ehrlich-Institut. The same serum pool was used for both, ELISA and mediator release assays.
The mediator release assay was performed according to an established protocol. […] After washing, cells were stimulated with serial dilutions of Bet v 1 isoforms a, d, or m in Tyrode's buffer containing […]. For complex formation, the Bet v 1 isoforms were incubated overnight with a 5-fold molar excess of Q3OS, rutin, quercetin, Q3OGlc, Q3OGal, or sophorose, respectively, before stimulating the cells. Degranulation was quantified by photometric measurement of β-hexosaminidase activity in the culture supernatants. The percentage of β-hexosaminidase activity relative to cells lysed with Triton X-100 (Sigma-Aldrich, Steinheim, Germany) was calculated and corrected for spontaneous release (sensitized cells without allergen).

[6] = biological target: T1, Bet v 1a; conditions: Fluorescence, read-out: Dissociation constant Kd; cited from earlier work
[7] = tested on: serum IgE binding to surface-coated Bet v 1a, Bet v 1d and Bet v 1m; assay: Indirect ELISA for IgE binding to Bet v 1 isoforms; parameters: species or system human
Source text: as §5
For IgE-ELISA experiments, Maxisorp plates (Nunc via Fisher Scientific) were coated overnight at room temperature with 50 ng/100 μl recombinant Bet v 1 isoforms a, d, or m with a 5-fold molar excess of quercetin-3-O-sophorose, rutin, quercetin, quercetin-3-O-glucoside, quercetin-3-O-galactoside, or sophorose, respectively, in phosphate-buffered saline (PBS). After blocking with PBS containing 2% bovine serum albumin (BSA) these plates and an uncoated control were incubated with a dilution series of a serum pool of birch-pollen allergic subjects for 1 h at room temperature with PBS containing 0.05% Tween 20 and 0.1% BSA. Allergen-specific human IgE was detected with a horseradish peroxidase-conjugated mouse anti-human IgE antibody (Clone B3102E8, Southern biotech via Biozol, Eching, Germany) diluted 1:1000. 3,3′,5,5′-tetramethylbenzidine (Roth, Karlsruhe) was used as substrate for horseradish peroxidase, and the absorbance at 450 nm was measured after stopping the reaction with 25% H2SO4.

[8] = UV/VIS absorption spectra of unbound flavonoids; format: physicochemical; conditions: pH 7.0
Experimental: All flavonoids and Bet v 1 isoforms were dissolved in 50 mM sodium phosphate, 50 mM NaCl, 10% (v/v) DMSO, pH 7.0, to a final concentration of 10 to 20 μM in 500 μl. Absorption spectra from 200–800 nm were recorded at 25°C in a 1 cm quartz cuvette (Hellma GmbH) using a 8453 UV-visible spectrophotometer (Agilent).

[9] = 5-fold molar excess of ligand, isoforms a, d, m

T1 sequence (P15494 whole entry): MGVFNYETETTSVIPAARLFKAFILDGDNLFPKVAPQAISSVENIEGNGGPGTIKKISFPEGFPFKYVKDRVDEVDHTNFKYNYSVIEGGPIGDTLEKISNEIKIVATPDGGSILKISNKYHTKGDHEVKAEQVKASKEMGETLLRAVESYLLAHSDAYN
T2 sequence (P43177 whole entry): as the sequence (P15494 whole entry) above, with T8I, F31V, S58N, I92V, S113C, I114V, D126N counted along it
T3 sequence (P43186 whole entry): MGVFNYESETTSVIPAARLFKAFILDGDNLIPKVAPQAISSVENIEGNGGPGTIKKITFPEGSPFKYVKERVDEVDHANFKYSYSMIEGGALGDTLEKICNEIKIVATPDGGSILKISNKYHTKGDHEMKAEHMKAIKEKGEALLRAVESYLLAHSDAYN

Row | Molecule | Kd per residue ([1]; one value per residue with Δδnorm > 0.08 ppm (residue named left of the cell), Int. Ex. = intermediate exchange) | Kd ([1]; NMR, average of all analysable residues with CSPs > 0.08 ppm, ± standard deviation, read-out: Dissociation constant Kd (averaged Kd app)) [µM] | binding to Bet v 1d (in words) ([2]; 1H-15N HSQC titration, up to 15-fold excess) | Dissociation constant Kd (averaged Kd app) ([2]; NMR, Bet v 1d, average of all analysable residues with CSPs > 0.08 ppm, ± standard deviation) | Dissociation constant Kd (averaged Kd app) [3] | binding to Bet v 1m (in words) [4] | influence of ligand on mediator release induced by Bet v 1 isoforms [5, 9] | Kd [6] [µM] | influence of ligand on IgE binding of Bet v 1 isoforms [7, 9] | Absorption maxima, Flavonoid [8] [nm] | shift to higher concentration for half-maximum release of β-hexosaminidase in comparison to the other isoforms ([5]; absence of ligands) | IgE-binding capacity ([7]; absence of ligands, pool serum of birch pollen-allergic subjects)
1 | O=c1c(O[C@@H]2O[C@H](CO)[C@@H](O)[C@H](O)[C@H]2O[C@@H]2O[C@H](CO)[C@@H](O)[C@H](O)[C@H]2O)c(-c2ccc(O)c(O)c2)oc2cc(O)cc(O)c12 [Q3OS, quercetin-3-O-sophoroside] | Int./Slow Ex. | < 1 | did not produce significant CSPs | No binding | No binding | did not lead to significant CSPs | does not significantly influence | 0.57 | does not significantly influence | 358 |  | 
2 | Bet v 1d: recombinant hypoallergenic isoform of the major birch pollen allergen Bet v 1 (UniProt P43177) (protein, UniProt P43177 2-160, looked up) Major pollen allergen Bet v …: GVFNYEIETTSVIPAARLFKAFILDGDNLVPKVAPQAISSVENIEGNGGPGTIKKINFPEGFPFKYVKDRVDEVDHTNFKYNYSVIEGGPVGDTLEKISNEIKIVATPDGGCVLKISNKYHTKGNHEVKAEQVKASKEMGETLLRAVESYLLAHSDAYN |  |  |  |  |  |  |  |  |  |  | approximately 10 fold | only marginal
